Earlier results, collected in patent US20140073698A1 (Aventis Pharma S.A., priority 2011, published 2014).

Details: @pH=1; simulation input

Q: Which “Reference Log D” value does the source give for CC(C(=O)O)c1cccc(C(=O)c2ccccc2)c1 (stereo not shown) [Ketoprofen, 2-(3-benzoylphenyl)propionic acid] here?
A: 3.16
